System: Glucan Synthase of Candida albicans
Assay: Inhibition of the Glucan Synthase of Candida albicans
Format: biochemical
Details: Candida albicans membranes, 14C-UDP glucose, 25° C. for 1 hour
Procedure: A—Inhibition of the Glucan Synthase of Candida albicans
Candida albicans membranes were purified according to the process described by Tang et al Antimicrob. Agents Chemother 35, 99–103, 1991. 22.5 μg of membrane proteins are incubated in a mixture of 2 Mm of 14C-UDP glucose (specific activity=0.34 mCi./mmol, 50 μg of α-amylase, 1 Mm of dithiotreitol (DTT), 1 Mm EDTA, 100 Mm NaF, 7 μM of GTP-γ-S, 1 M of sucrose and 50 Mm of Tris-HCL (pH 7.8) in a volume of 100 μl. The medium is incubated at 25° C. for 1 hour and the reaction is terminated by adding TCA at a final concentration of 5%. The reaction mixture is transferred onto a pre-humidified glass fibre filter. The filter is washed, dried and its radioactivity is counted.
Mulundocandine is used as a positive control.
Control of the vehicle is carried out with the same quantity of 1% DMSO.

1-[4-[(2-aminoethyl)amino]-N2-[[4-[5-[4-pentyloxy)-phenyl]-3-isoxazolyl]-phenyl]-carbonyl]-L-ornithine]-4-(4-hydroxyphenyl)-L-threonine]-5-L-serine-echinocandine B [Example 1]
Inhibition of the Glucan Synthase of Candida albicans: good activity

— patent publication US7005417B1, “Echinocandin derivatives, method for preparing same and use as antifungal agents” (Aventis Pharma S.A., priority 1999, dated 2006)
